{"source": "paper PMC7979765", "about": "“trans-Translation inhibitors bind to a novel site on the ribosome and clear Neisseria gonorrhoeae in vivo” (Nature Communications, 2021)", "tested_on": "Neisseria gonorrhoeae", "assay": "MIC, microbroth dilution, G77L medium", "format": "cell-based", "settings": "Neisseria gonorrhoeae", "note": "Read-outs that look alike come from different tables or passages of the source.", "data": [{"smiles": "O=C(Nc1nnc(-c2ccc(F)cc2)o1)N1CCc2ccccc2C1", "note": "[MBX-4132]", "values": [{"measurement": "MIC", "setting": "read-out: MIC GEOMEAN, strain WHO M, geomean of replicates", "value": 0.132, "unit": "µg/mL"}, {"measurement": "MIC", "setting": "read-out: MIC GEOMEAN, strain WHO N, geomean of replicates", "value": 0.264, "unit": "µg/mL"}, {"measurement": "MIC", "setting": "read-out: MIC GEOMEAN, strain WHO O, geomean of replicates", "value": 0.132, "unit": "µg/mL"}, {"measurement": "MIC", "setting": "read-out: MIC GEOMEAN, strain WHO P, geomean of replicates", "value": 0.333, "unit": "µg/mL"}, {"measurement": "MIC", "setting": "read-out: MIC GEOMEAN, strain WHO U, geomean of replicates", "value": 0.132, "unit": "µg/mL"}, {"measurement": "MIC", "setting": "read-out: MIC GEOMEAN, strain WHO V, geomean of replicates", "value": 0.264, "unit": "µg/mL"}, {"measurement": "MIC", "setting": "read-out: MIC GEOMEAN, strain WHO W, geomean of replicates", "value": 0.132, "unit": "µg/mL"}, {"measurement": "MIC", "setting": "read-out: MIC GEOMEAN, strain WHO X, geomean of replicates", "value": 0.21, "unit": "µg/mL"}, {"measurement": "MIC", "setting": "read-out: MIC GEOMEAN, strain WHO Y, geomean of replicates", "value": 0.21, "unit": "µg/mL"}, {"measurement": "MIC", "setting": "read-out: MIC GEOMEAN, strain WHO Z, geomean of replicates", "value": 0.264, "unit": "µg/mL"}, {"measurement": "MIC", "setting": "read-out: N. gonorrhoeae H041 MIC, strain H041, Fig. 1B", "value": 0.18, "unit": "µg/mL"}, {"measurement": "MIC90", "setting": "read-out: N. gonorrhoeae MIC90", "value": 0.34, "unit": "µg/mL"}, {"measurement": "MIC", "setting": "strain CDC-0165, CIP, PEN, TET", "value": 0.68, "unit": "µg/mL"}, {"measurement": "MIC", "setting": "strain CDC-0165, replicates 1-3", "value": 0.677, "unit": "µg/mL"}, {"measurement": "MIC", "setting": "strain CDC-0166, CIP, PEN, TET", "value": 0.17, "unit": "µg/mL"}, {"measurement": "MIC", "setting": "strain CDC-0166, replicates 1-3", "value": 0.169, "unit": "µg/mL"}, {"measurement": "MIC", "setting": "strain CDC-0167", "value": 0.13, "unit": "µg/mL"}, {"measurement": "MIC", "setting": "strain CDC-0167, replicates 1-3", "value": 0.169, "unit": "µg/mL"}, {"measurement": "MIC", "setting": "strain CDC-0169, CIP, PEN, TET", "value": 0.17, "unit": "µg/mL"}, {"measurement": "MIC", "setting": "strain CDC-0169, replicates 1-3", "value": 0.169, "unit": "µg/mL"}, {"measurement": "MIC", "setting": "strain CDC-0170, CIP, PEN, TET", "value": 0.17, "unit": "µg/mL"}, {"measurement": "MIC", "setting": "strain CDC-0170, replicates 1-3", "value": 0.169, "unit": "µg/mL"}, {"measurement": "MIC", "setting": "strain CDC-0171, CIP, PEN, TET", "value": 0.17, "unit": "µg/mL"}, {"measurement": "MIC", "setting": "strain CDC-0171, replicates 1-3", "value": 0.169, "unit": "µg/mL"}, {"measurement": "MIC", "setting": "strain CDC-0172, CIP, PEN, TET", "value": 0.17, "unit": "µg/mL"}, {"measurement": "MIC", "setting": "strain CDC-0172, replicates 1-3", "value": 0.169, "unit": "µg/mL"}, {"measurement": "MIC", "setting": "strain CDC-0173, CIP, PEN, TET", "value": 0.17, "unit": "µg/mL"}, {"measurement": "MIC", "setting": "strain CDC-0173, replicates 1-3", "value": 0.169, "unit": "µg/mL"}, {"measurement": "MIC", "setting": "strain CDC-0174, CIP, PEN, TET", "value": 0.17, "unit": "µg/mL"}, {"measurement": "MIC", "setting": "strain CDC-0174, replicates 1-3", "value": 0.169, "unit": "µg/mL"}, {"measurement": "MIC", "setting": "strain CDC-0175, CIP, PEN, TET", "value": 0.08, "unit": "µg/mL"}, {"measurement": "MIC", "setting": "strain CDC-0175, replicates 1-3", "value": 0.085, "unit": "µg/mL"}, {"measurement": "MIC", "setting": "strain CDC-0176", "value": 0.34, "unit": "µg/mL"}, {"measurement": "MIC", "setting": "strain CDC-0176, replicates 1-3", "value": 0.338, "unit": "µg/mL"}, {"measurement": "MIC", "setting": "strain CDC-0177, CIP, PEN, TET", "value": 0.17, "unit": "µg/mL"}, {"measurement": "MIC", "setting": "strain CDC-0177, replicates 1-3", "value": 0.169, "unit": "µg/mL"}, {"measurement": "MIC", "setting": "strain CDC-0178, TET", "value": 0.34, "unit": "µg/mL"}, {"measurement": "MIC", "setting": "strain CDC-0178, replicates 1-3", "value": 0.338, "unit": "µg/mL"}, {"measurement": "MIC", "setting": "strain CDC-0179, CIP, PEN, TET", "value": 0.08, "unit": "µg/mL"}, {"measurement": "MIC", "setting": "strain CDC-0179, replicates 1-3", "value": 0.085, "unit": "µg/mL"}, {"measurement": "MIC", "setting": "strain CDC-0180", "value": 0.17, "unit": "µg/mL"}, {"measurement": "MIC", "setting": "strain CDC-0180, replicates 1-3", "value": 0.169, "unit": "µg/mL"}, {"measurement": "MIC", "setting": "strain CDC-0181, CIP, PEN, TET", "value": 0.17, "unit": "µg/mL"}, {"measurement": "MIC", "setting": "strain CDC-0181, replicates 1-3", "value": 0.169, "unit": "µg/mL"}, {"measurement": "MIC", "setting": "strain CDC-0182, TET", "value": 0.17, "unit": "µg/mL"}, {"measurement": "MIC", "setting": "strain CDC-0182, replicates 1-3", "value": 0.169, "unit": "µg/mL"}, {"measurement": "MIC", "setting": "strain CDC-0183, CIP, PEN, TET", "value": 0.34, "unit": "µg/mL"}, {"measurement": "MIC", "setting": "strain CDC-0183, replicates 1-3", "value": 0.338, "unit": "µg/mL"}, {"measurement": "MIC", "setting": "strain CDC-0184, CIP, PEN, TET", "value": 0.17, "unit": "µg/mL"}, {"measurement": "MIC", "setting": "strain CDC-0184, replicates 1-3", "value": 0.169, "unit": "µg/mL"}, {"measurement": "MIC", "setting": "strain CDC-0185, CIP, PEN, TET", "value": 0.27, "unit": "µg/mL"}, {"measurement": "MIC", "setting": "strain CDC-0185, replicates 1-3", "value": 0.338, "unit": "µg/mL"}, {"measurement": "MIC", "setting": "strain CDC-0186, CIP, PEN, TET", "value": 0.17, "unit": "µg/mL"}, {"measurement": "MIC", "setting": "strain CDC-0186, replicates 1-3", "value": 0.169, "unit": "µg/mL"}]}]}
